Test results taken from BindingDB's records for doi:10.1016/j.bmc.2009.07.051 (La Rochelle University, 2009).
pIC50: −log10 of the molar value.

Tests used:
[1] = biological target: Cyclin-dependent kinase 5 activator 1 (Homo sapiens, UniProt Q15078+Q00535); assay: Inhibition of GST-fused CDK5/p25 expressed in Escherichia coli assessed as [gamma-33P]ATP incorporation after 10 mins by scintillation counting
[2] = biological target: Dual specificity tyrosine-phosphorylation-regulated kinase 1A (Rattus norvegicus, UniProt Q63470); assay: Inhibition of GST-fused rat recombinant DYRK1A expressed in Escherichia coli assessed as [gamma-33P]ATP incorporation after 10 mins by scintillation counting

Sequence of Cyclin-dependent kinase 5 activator 1 (Q15078 whole entry, the tested form may be a part): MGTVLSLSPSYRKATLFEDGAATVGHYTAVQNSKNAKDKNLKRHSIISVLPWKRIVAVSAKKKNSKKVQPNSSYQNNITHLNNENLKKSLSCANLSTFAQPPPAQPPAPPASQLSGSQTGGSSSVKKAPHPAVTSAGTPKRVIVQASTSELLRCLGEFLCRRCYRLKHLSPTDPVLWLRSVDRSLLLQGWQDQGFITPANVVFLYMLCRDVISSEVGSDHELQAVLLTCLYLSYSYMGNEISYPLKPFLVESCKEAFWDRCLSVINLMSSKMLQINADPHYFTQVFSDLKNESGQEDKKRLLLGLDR
Sequence of Cyclin-dependent kinase 5 activator 1 (Q00535 whole entry, the tested form may be a part): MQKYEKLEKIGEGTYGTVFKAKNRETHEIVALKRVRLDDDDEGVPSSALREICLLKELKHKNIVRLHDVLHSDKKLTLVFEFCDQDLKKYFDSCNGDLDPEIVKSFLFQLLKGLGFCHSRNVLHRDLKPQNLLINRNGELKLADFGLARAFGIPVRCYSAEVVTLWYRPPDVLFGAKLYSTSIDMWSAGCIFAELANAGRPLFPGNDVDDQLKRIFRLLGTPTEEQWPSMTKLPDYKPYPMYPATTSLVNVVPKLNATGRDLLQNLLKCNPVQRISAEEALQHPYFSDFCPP

SMILES	pIC50 [1]	pIC50 [2]
O=C1C(C2C(=O)Nc3cc([N+](=O)[O-])ccc32)=Nc2ccc(Br)cc21 (stereo unspecified)	< 5.00	
O=C1C(C2C(=O)Nc3cc([N+](=O)[O-])ccc32)=Nc2ccccc21 (stereo unspecified) [(2''Z)-6-Nitroindirubin]	< 5.00	
O=C1C(C2C(=O)Nc3c(Br)cc([N+](=O)[O-])cc32)=Nc2ccc(Br)cc21 (stereo unspecified) [(2'Z)-5'-7-Dibromo-5-nitroindirubin]	< 5.00	< 5.00
O=C1N=c2c(Br)cc([N+](=O)[O-])cc2=C1c1[nH]c2ccccc2c1O [(2'Z)-7-Bromo-5-nitroindirubin]	< 5.00	< 5.00
Nc1ccc2c(c1)C(c1[nH]c3ccc(Br)cc3c1N=O)C(=O)N2 (stereo unspecified) [(Z)-5'-Amino-5-bromo-1H,1'H-[2,3']biindolylidene-3,2'-dione 3-oxime]		< 5.00
O=C1N=c2ccc([N+](=O)[O-])cc2=C1c1[nH]c2ccccc2c1O [(Z)-5'-Nitro-1H,1'H-[2,3']biindolylidene-3,2'-dione]		< 5.00
O=Nc1c(C2C(=O)Nc3c(Br)cc([N+](=O)[O-])cc32)[nH]c2ccc(Br)cc12 (stereo unspecified) [(Z)-5,7'-Dibromo-5'-nitro-1H,1'H-[2,3']biindolylidene-3,2'-dione 3-oxime]	< 5.00	< 5.00
O=Nc1c(C2C(=O)Nc3ccc([N+](=O)[O-])cc32)[nH]c2ccc(Br)cc12 (stereo unspecified) [(Z)-5-Bromo-5'-nitro-1H,1'H-[2,3']biindolylidene-3,2'-dione 3-oxime]		< 5.00
O=C1C(C2C(=O)Nc3ccc([N+](=O)[O-])cc32)=Nc2ccc(Br)cc21 (stereo unspecified) [(Z)-5-Bromo-5'-nitro-1H,1'H-[2,3']biindolylidene-3,2'-dione]	< 5.00	< 5.00
O=Nc1c(C2C(=O)Nc3c(Br)cc([N+](=O)[O-])cc32)[nH]c2ccccc12 (stereo unspecified) [(Z)-7'-Bromo-5'-nitro-1H,1'H-[2,3']biindolylidene-3,2'-dione 3-oxime]	< 5.00	< 5.00
CC(=O)Nc1ccc2c(c1)C(c1[nH]c3ccc(Br)cc3c1N=O)C(=O)N2 (stereo unspecified) [N-{(Z)-5-Bromo-3-[(E)-hydroxyimino]-2'-oxo-1,3,1',2'-tetrahydro-[2,3']biindolyliden-5'-yl}-acetamide]		< 5.00
